In publication PMC10424705, “Physiological insight into the conserved properties of Caenorhabditis elegans acid‐sensing degenerin/epithelial sodium channels” (The Journal of Physiology, 2022):

Tests used:
Assay in all cases: two-electrode voltage clamp, Xenopus oocytes
Type in all cases: cell-based
UNC-105h [1] = biological target: T1, UNC-105h (Caenorhabditis elegans, UniProt Q09274); settings: pH 7.4, -60 mV, ND96, room temperature; second, current-restoring phase of biphasic response; text b54 prints 6.7 µM instead
T1 construct: isoform h cDNA in KSM vector, Xenopus laevis oocytes, homomeric channel (trimer by known biology)
T1 sequence (Q09274 1-887): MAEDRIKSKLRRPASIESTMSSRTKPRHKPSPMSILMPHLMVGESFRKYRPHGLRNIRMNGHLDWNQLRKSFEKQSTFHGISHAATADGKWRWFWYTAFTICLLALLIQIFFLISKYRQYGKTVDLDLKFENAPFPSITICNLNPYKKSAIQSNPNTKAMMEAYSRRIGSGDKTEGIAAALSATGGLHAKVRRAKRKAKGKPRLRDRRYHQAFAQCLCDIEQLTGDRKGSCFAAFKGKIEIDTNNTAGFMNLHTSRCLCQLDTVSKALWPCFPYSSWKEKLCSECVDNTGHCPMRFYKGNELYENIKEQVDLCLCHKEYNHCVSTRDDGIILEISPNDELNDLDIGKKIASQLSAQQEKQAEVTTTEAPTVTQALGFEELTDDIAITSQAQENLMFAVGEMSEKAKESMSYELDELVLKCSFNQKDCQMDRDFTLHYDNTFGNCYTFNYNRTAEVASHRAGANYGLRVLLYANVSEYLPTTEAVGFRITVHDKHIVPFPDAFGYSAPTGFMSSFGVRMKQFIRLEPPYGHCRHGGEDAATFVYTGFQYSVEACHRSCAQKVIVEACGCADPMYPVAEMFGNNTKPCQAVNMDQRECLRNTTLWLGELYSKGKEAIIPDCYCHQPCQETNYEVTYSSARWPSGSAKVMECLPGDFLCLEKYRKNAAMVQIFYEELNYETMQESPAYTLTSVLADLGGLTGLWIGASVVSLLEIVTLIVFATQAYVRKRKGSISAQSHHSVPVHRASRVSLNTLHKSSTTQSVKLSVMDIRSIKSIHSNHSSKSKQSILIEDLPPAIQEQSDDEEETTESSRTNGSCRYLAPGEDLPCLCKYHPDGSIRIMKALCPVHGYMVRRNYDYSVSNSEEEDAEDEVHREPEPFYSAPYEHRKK

ASIC-1 = biological target: T2, ASIC-1 (Caenorhabditis elegans, UniProt O01635)
T2 construct: full-length cDNA in KSM vector, Xenopus laevis oocytes, homomeric channel (trimer by known biology)
T2 sequence (O01635 1-823): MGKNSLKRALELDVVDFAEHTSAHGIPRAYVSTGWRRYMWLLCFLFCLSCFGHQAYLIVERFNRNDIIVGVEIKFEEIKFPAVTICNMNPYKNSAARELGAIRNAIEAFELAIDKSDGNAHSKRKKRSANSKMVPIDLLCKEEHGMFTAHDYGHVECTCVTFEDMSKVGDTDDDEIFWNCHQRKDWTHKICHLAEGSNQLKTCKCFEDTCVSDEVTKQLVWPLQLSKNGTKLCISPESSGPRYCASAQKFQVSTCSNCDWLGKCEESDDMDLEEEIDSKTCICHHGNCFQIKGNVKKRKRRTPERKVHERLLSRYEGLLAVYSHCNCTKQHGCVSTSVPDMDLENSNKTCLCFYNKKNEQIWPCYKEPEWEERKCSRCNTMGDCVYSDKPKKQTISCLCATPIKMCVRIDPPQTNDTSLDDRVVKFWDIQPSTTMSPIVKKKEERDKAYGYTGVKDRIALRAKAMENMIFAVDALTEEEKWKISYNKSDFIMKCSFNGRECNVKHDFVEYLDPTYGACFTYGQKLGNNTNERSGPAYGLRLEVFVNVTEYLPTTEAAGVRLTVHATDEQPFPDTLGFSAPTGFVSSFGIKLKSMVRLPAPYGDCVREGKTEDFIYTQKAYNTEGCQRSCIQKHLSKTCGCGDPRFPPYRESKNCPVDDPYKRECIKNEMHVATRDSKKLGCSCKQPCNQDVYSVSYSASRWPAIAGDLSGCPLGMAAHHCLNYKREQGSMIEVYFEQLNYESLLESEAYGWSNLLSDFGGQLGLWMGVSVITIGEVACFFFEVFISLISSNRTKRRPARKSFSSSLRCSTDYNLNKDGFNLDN

UNC-105h [2] = biological target: T1, UNC-105h; settings: pH 7.4, -60 mV, ND96, room temperature; paradoxical biphasic response, low-concentration inhibition

`N=C(N)NC(=O)c1nc(Cl)c(N)nc1N` [amiloride] showed an EC50 (UNC-105h [1]) of 5.9 µM, an IC50 (ASIC-1) of 108 µM and an IC50 (UNC-105h [2]) of 0.76 µM.
